The values that follow come from article PMC8512812, “Clerodane Diterpenoids from an Edible Plant Justicia insularis: Discovery, Cytotoxicity, and Apoptosis Induction in Human Ovarian Cancer Cells” (Molecules, 2021).

Where two headings read alike, the source gives them in different places.

The subject of data set [1] is Hela cells. More on the design: method as in PMID 32213364. To be noted: from the leaves of Casearia kurzii; read-out: IC50 against Hela cells; cited from earlier work.
Data set [2] deals with HOE cells (normal human ovarian surface epithelial). As to the kind of experiment: Sulforhodamine B (SRB) cell growth inhibitory assay. The data set is classed as cell-based. As to conditions: for IC50: SRB, 72 h; for cytotoxic activity against HOE cells: compared with OVCAR-4 and OVCAR-8. How it is done:
(§1) The human ovarian cancer cell lines and normal human ovarian surface epithelial (HOE) cells were used in this study. Ovarian cancer cell lines (OVCAR-4 and OVCAR-8) were products of American tissue culture collection (ATCC). The HOE cells were purchased from Applied Biological Materials (ABM) Inc. (Vancouver, BC, Canada). The Rosewell Park Memorial Institute (RPMI 1640, Lonza) medium was used in the culturing of OVCAR-4, OVCAR-8, and HOE cells. The medium was supplemented with 2 mM glutamine, 10% foetal bovine serum (FBS), and 50 µg/mL penicillin streptomycin. These cells were incubated in a standard humidified incubator) at 37 °C, 5% carbon dioxide (CO2) conditions.
(§2) Sulforhodamine B (SRB) assay was used to determine the inhibition of cell proliferation by the studied compounds and plant extracts. Plant extracts/fractions (100 mg/mL) and pure compounds (20 mM) were prepared in DMSO. The 0.2% DMSO in growth media was added to the cells as vehicle-treated cells (negative control) while carboplatin was used as positive control. In the SRB assay, OVCAR-4, OVCAR-8, and HOE cells were seeded in 80 µL growth medium per each well in 96 well plates. OVCAR-4 and HOE were seeded at a density of 5000 cells per well while OVCAR-8 was seeded at a density of 2000 cells per well. The seeded plates were incubated for 24 h, after which 20 μL of plant extracts and natural compounds 1000 µg/mL and 200 µM (and their serial two-fold dilutions), respectively, were added at the indicated concentrations. The cell cultures were incubated at 37 °C under 5% CO2 for 72 h in a humidified atmosphere.
(§3) After 72 h, the medium was decanted, and the cells fixed with 0.1 mL of 10% TCA on ice for 30 min before drying. The cells were stained with 0.4% SRB, washed with 1% acetic acid three times and dried. Then, 0.1 mL of Tris-base (10 mM) was added to the plates to solubilise the protein-bound SRB dye. The absorbance at 570 nm was measured using a spectroscopic plate reader (Multi-mode microplate reader BioTEK Synergy 2, Winooski, VT, USA). The data were analysed by non-linear regression to fit a 4-parameter sigmoidal dose–response curve to determine IC50 values using GraphPad PRISM 6.0 software, Inc. (San Diego, CA, USA).
(§4) The IC50s were obtained from at least three repeated experiments. The mean IC50 was calculated, and the standard error of mean (SEM) was determined. Furthermore, a one way analysis of variance (ANOVA) and student t test were used to test if the difference in the mean of control and treatments and mean of treatment at different concentration were significant. A post hoc Dunnett test was used to determine which of the treatments was significant to the control while a Tukey test was used to determine which of the concentrations of a particular treatment were significant using GraphPad prism 6.

Data set [3] has as its system OVCAR-4 and OVCAR-8 cells. Description: SRB cell growth assay, result stated jointly for both cancer lines. It counts as cell-based, human. To be noted: span over the two cell lines, read-out: IC50 against OVCAR-4 and OVCAR-8 cells. How it is done:
as §1, §2, §3, §4

Data set [4] relates to caspase 3/7 in OVCAR-4 cells. As to the kind of experiment: Caspase-Glo 3/7 activity assay. It counts as cell-based, human. As to conditions: 10, 20 and/or 30 μM, 48 h, vs control, one-way ANOVA. How it is done:
(§5) Caspase 3/7 activities was measured using assay kits caspase-Glo 3/7 (Promega Corp., Madison, WI, USA) on a 96-well microplate. Briefly, the cells (OVCAR-4 and OVCAR-8) were seeded in 96 well plates at a cell density of 5000 cells/well in 80 μL growth media and exposed to 10, 20 and/or 30 μM of the natural compounds after 24 h incubation. After 48 h exposure to compound treatments, 25 μL of Caspase 3/7 Glo-reagent was added, and the cells were incubated in the dark at room temperature for 30 min on a gentle rocker. The luminescence was measured at […] by a BioTEK Synergy microplate reader (USA). A similar procedure was followed for caspase 8 and caspase 9 activity.

In data set [5] the test system is caspase 3/7 in OVCAR-8 cells. As to the kind of experiment: Caspase-Glo 3/7 activity assay. The data set is classed as cell-based, human. As to conditions: 10, 20 and/or 30 μM, 48 h, vs control, one-way ANOVA. How it is done: as §5
Data set [6] relates to OVCAR-8 cells. Description: Sulforhodamine B (SRB) cell growth inhibitory assay. The data set is classed as cell-based, human. To be noted: for SI against OVCAR-8: ratio of IC50 against HOE cells to IC50 against OVCAR-8. How it is done: as §1, §2, §3, §4
Data set [7] relates to OVCAR-4 cells. Described as above. It counts as cell-based, human. How it is done:
as §1, §2, §3, §4

The nature of data set [8]: Thermal stability (GC-MS conditions; heating followed by HPLC). It counts as physicochemical. How it is done: Briefly, 1.0–2.0 mg of the bioactive fractions and isolated compounds of J. insularis were dissolved in 200 μL of ethyl acetate and sonicated at <40 °C for 5 min. 1–2 μL of the solution was subsequently injected into gas chromatography mass spectrometry (GC-MS) system consisting of an Agilent 7890 coupled to Agilent MS model 5975C MSD (Agilent Technologies, Cold Spring, NY, USA). The gas chromatography started at 60 °C for 2 min and increased to 300 °C at the rate of 10 °C/min, which was held at 300 °C for 4 min at a constant helium pressure (10 psi). The mass spectra data were acquired in the scan mode in m/z range 40–1000.
The molecular formula of 1 was determined as C20H30O3 based on the observed molar mass of compound 1 (found, 318.2123 Da) by LC-HR-MS (Figure S4). […] The other observed compounds, 1a and 1b (Figure S5), were determined to be the thermal degradation products of compound 1 due to the presence of a γ–hydroxy unsaturated 5-membered lactone moiety (Figure 1) under high temperature conditions (60 °C–300 °C) for 30 min of GC-MS. […] Furthermore, the percentage of compound 1 in organic extracts was determined to be 34%. Thus, the composition of compound 1 in the plant material is 0.7% (dry weight), a very abundant secondary metabolite in the leave of J. insularis.

Data set [9] concerns OVCAR-8 cells. Description: Annexin V-FITC / propidium iodide flow cytometry. The data set is classed as cell-based, human. As to conditions: 5, 10, and 20 µM, 48 h treatment. How it is done: The in vitro method of fluorescence-activated cell sorting (FACS) by Annexin V and propidium iodide (PI) staining was used to detect the change of cell population as reported. OVCAR-8 cells were seeded in 12 well plates at a density of 2 × 10^5 cells per well in 1 mL of growth media and incubated for 24 h before treatment with the tested compound and positive control. After treatment for 48 h, media were decanted into 15 mL tubes, and cell pellets were collected into the same tubes by trypsinisation, the cells were centrifuged at 150× g for 3 min and re-suspended into 1 mL growth media, which was transferred into sterile 2 mL Eppendorf tube, centrifuged at 300× g for 5 min at 4 °C. The media were aspirated, and the pellet was washed in cold PBS. The cells were centrifuged under the same conditions and the supernatant aspirated. Cells were washed in 500 µL annexin-V binding buffer and centrifuged at 300× g for 10 min, annexin-V binding buffer was aspirated, and the cell pellet was treated with 10 µL of annexin V-FITC in 100 µL of binding buffer. The cells were thoroughly mixed and incubated in the dark at room temperature for 15 min. After incubation, cells were washed in binding buffer and centrifuged at 300× g for 10 min. The buffer was aspirated, and cells were suspended in 500 µL binding buffer and subsequently 5 µL of PI was added for flow cytometry analysis.

Data set [10] deals with caspase 8 in OVCAR-8 cells. Description: Caspase-Glo 8 activity assay. It counts as cell-based, human. How it is done:
as §5

For data set [11], the system named is caspase 9 in OVCAR-8 cells. As to the kind of experiment: Caspase-Glo 9 activity assay. The data set is classed as cell-based, human. How it is done: as §5
The mark [12] stands for this setting: Homo sapiens, mean ± SEM, read-out: growth inhibitory activity, IC50, HOE.
[13] abbreviates: Homo sapiens, same IC50 given in μg/mL, read-out: growth inhibitory activity, IC50, HOE, in parentheses (converted).
The mark [14] stands for this setting: Homo sapiens, OVCAR-8, SRB, 72 h, mean ± SEM, read-out: growth inhibitory activity, IC50, OVCAR-8.
Setting [15] is: Homo sapiens, OVCAR-8, SRB, 72 h, same IC50 given in μg/mL, read-out: growth inhibitory activity, IC50, OVCAR-8, in parentheses (converted).
Setting [16] is: Homo sapiens, OVCAR-4, 72 h, mean ± SEM, read-out: growth inhibitory activity, IC50, OVCAR-4.
Setting [17] is: Homo sapiens, OVCAR-4, 72 h, same IC50 given in μg/mL, read-out: growth inhibitory activity, IC50, OVCAR-4, in parentheses (converted).

A word on the IC50: it is the midpoint of a concentration-inhibition curve. For Kurzipene B, in data set [1], the IC50 was 5.3 µM.

For the molecule `CC1=CCC[C@@H]2[C@@](C)(CC/C(C=O)=C\C(=O)O)[C@H](C)CC[C@@]12C` [Compound 2, 16-oxo-cleroda-3,13(14)E-dien-15-oic acid], the concentration for half-maximal inhibition (IC50) in data set [2] (setting [12]) was 22.8 ± 0.7 µM; in data set [2] (setting [13]) it was 7.3 µg/mL; in data set [3] (Homo sapiens), 12 to 17 µM; in data set [6] (setting [14]), 11.8 ± 0.5 µM; in data set [6] (setting [15]), 3.8 µg/mL; in data set [7] (setting [16]), 16.6 ± 2.8 µM. Also, in data set [7] (setting [17]), the half-inhibitory concentration (IC50) was 5.3 µg/mL. In addition, the “cytotoxic activity against HOE cells” value in data set [2] is recorded as “less cytotoxic activity”. Besides, the “caspase 3/7 activities” value in data set [4] and in [5] was “significantly increased” each time. In addition, the “SI against OVCAR-8” value in data set [6] stood at 2.

In the case of `N.N.O=C([O-])C1(C(=O)[O-])CCC1.[Pt+2]` [Carboplatin, carboplatin, reference compound], the 50% inhibitory concentration (IC50) is 13 ± 3.7 µM in data set [2] (mean ± SEM, read-out: growth inhibitory activity, IC50, HOE); 8 to 18 µM in [3]; 8.2 ± 2.2 µM in data set [6] (SRB, 72 h, mean ± SEM, read-out: growth inhibitory activity, IC50, OVCAR-8); 17.6 ± 4.6 µM in [7] (72 h, mean ± SEM, read-out: growth inhibitory activity, IC50, OVCAR-4). Moreover, the “SI against OVCAR-8” value in data set [6] was 1.6.

With `CC1=CCC[C@@H]2[C@@](C)(CCC3=CC(=O)OC3O)[C@H](C)CC[C@@]12C` (mixture of isomers) [Compound 1, 16(α/β)-hydroxy-cleroda-3,13(14)Z-dien-15,16-olide], the “thermal stability, HPLC after heating” value in [8] (200 °C for 0.5 h followed by HPLC analysis) is “formation of new products”. Also, the “thermal stability” value in [8] (at a high temperature) was “thermally unstable”. Also, the IC50 in data set [2] (setting [12]) was 12.1 ± 0.1 µM; in data set [2] (setting [13]), 3.9 µg/mL; in data set [3] (Homo sapiens), 4 to 6 µM; in data set [3] it was under 6 µM; in data set [6] (Homo sapiens, OVCAR-8, Figure S1 scheme, read-out: IC50 in OVCAR-8 (Figure S1)), 1.42 µg/mL; in [6] (setting [14]), 4.4 ± 0.2 µM. Besides, the 50% inhibitory concentration (IC50) in data set [6] (setting [15]) was 1.4 µg/mL; in data set [7] (setting [16]), 5.7 ± 0.3 µM; in data set [7] (setting [17]), 1.8 µg/mL. Moreover, the “cytotoxic activity against HOE cells” value in data set [2] is recorded as “less cytotoxic activity”. Also, in [9], the “percentage of early and late apoptosis” value was “concentration-dependent and significant increase”. For the same molecule, the “caspase 3/7 activities” value in data set [4] and in [5] was “significantly increased” in each case. In addition, in data set [10], the “caspase 8 activity” value is given as “increased”. For the same molecule, the “SI against OVCAR-8” value in [6] worked out at 3. Also, in [11], the “caspase 9 activity” value was “increased”.
